Experimental data from US10745382B2 (BRISTOL-MYERS SQUIBB COMPANY, priority 2015, dated 2020).

Target: T1, PD-1/PD-L1 (Homo sapiens, UniProt Q9NZQ7)
T1 construct: made in house; host or cells: HEK293T
Assay: PD-1/PD-L1 Homogenous Time-Resolved Fluorescence (HTRF) binding assay
Settings: PD-L1-His 10 nM, PD-1-Ig 20 nM; value given as range class; read-out: Range or IC50
Summary of the method: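 Binding measured in dPBS with 0.1% BSA and 0.05% Tween-20, detected by HTRF with europium cryptate anti-Ig (1 nM final) and APC anti-His (20 nM final) added over the binding reaction. Counter-assays used human PD-1-Ig/PD-L2-His (20 and 5 nM) and CD80-His/PD-L1-Ig (100 and 10 nM).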

T1 sequence (Q9NZQ7 with tags, fused parts or gaps): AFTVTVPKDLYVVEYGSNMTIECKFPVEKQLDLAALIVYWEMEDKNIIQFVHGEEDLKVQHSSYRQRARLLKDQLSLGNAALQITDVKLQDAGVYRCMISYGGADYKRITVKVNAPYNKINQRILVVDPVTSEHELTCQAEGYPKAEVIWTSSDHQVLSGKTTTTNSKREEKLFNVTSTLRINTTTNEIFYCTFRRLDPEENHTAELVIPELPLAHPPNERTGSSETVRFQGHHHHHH

Row | Compound | IC50 [µM]
1 | Cc1c(COc2cc(OCc3cncc(S(C)(=O)=O)c3)c(CN[C@H](CO)C(=O)O)cc2Cl)cccc1-c1cccc(OCCCN2CCC(CO)(C(=O)O)C2)c1C (stereo partly drawn) [Example 1050, 1-(3-((3′-((4-((((R)-1-carboxy-2-hydroxyethyl)amino)methyl)-2-chloro-5-((5-(methylsulfonyl)pyridin-3-yl)methoxy)phenoxy)methyl)-2,2′-dimethyl-[1,1′-biphenyl]-3-yl)oxy)propyl)-3-(hydroxymethyl)pyrrolidine-3-carboxylic Acid] | 0.00021 to 0.01
2 | Cc1c(COc2cc(OCc3cncc(C#N)c3)c(CN3CCCC[C@H]3C(=O)O)cc2Cl)cccc1-c1cccc(OCCCN2CCN(CCO)CC2)c1C [Example 2211, (2S)-1-(5-chloro-2-((5-cyanopyridin-3-yl)methoxy)-4-((3′-(3-(4-(2-hydroxyethyl)piperazin-1-yl)propoxy)-2,2′-dimethylbiphenyl-3-yl)methoxy)benzyl)piperidine-2-carboxylic Acid] | 0.00021 to 0.01
3 | Cc1c(COc2cc(OCc3cncc(C#N)c3)c(CN[C@@](C)(CO)C(=O)O)cc2Cl)cccc1-c1cccc(OCCCN2CCN(C)C(=O)C2)c1C [Example 2328, (S)-2-((5-chloro-2-((5-cyanopyridin-3-yl)methoxy)-4-((2,2′-dimethyl-3′-(3-(4-methyl-3-oxopiperazin-1-yl)propoxy)-[1,1′-biphenyl]-3-yl)methoxy)benzyl)amino)-3-hydroxy-2-methylpropanoic Acid] | 0.00021 to 0.01
4 | Cc1c(COc2cc(OCc3cncc(C#N)c3)c(CN3CCCC[C@H]3C(=O)O)cc2Cl)cccc1-c1cccc(OCCCN2CCC(N3CCOCC3)CC2)c1C [Example 2248, (2S)-1-(5-chloro-2-((5-cyanopyridin-3-yl)methoxy)-4-((2,2′-dimethyl-3′-(3-(4-morpholinopiperidin-1-yl)propoxy)biphenyl-3-yl)methoxy)benzyl)piperidine-2-carboxylic Acid] | 0.00021 to 0.01
5 | tert-butyl (S)-3-(((3′-((2-chloro-5-((5-cyanopyridin-3-yl)methoxy)-4-(((1,3-dihydroxypropan-2-yl)amino)methyl)phenoxy)methyl)-2,2′-dimethyl-[1,1′-biphenyl]-3-yl)oxy)methyl)pyrrolidine-1-carboxylate [Example 2322] | 0.01 to 0.1
6 | Cc1ccc(OCCCN2CC[C@@H](O)C2)c(C)c1-c1cccc(COc2cc(OCc3cncc(C#N)c3)c(CN3CCCC[C@H]3C(=O)O)cc2Cl)c1C [Example 3030, (2S)-1-(5-chloro-2-((5-cyanopyridin-3-yl)methoxy)-4-((3′-(3-((R)-3-hydroxypyrrolidin-1-yl)propoxy)-2,2′,6′-trimethyl-[1,1′-biphenyl]-3-yl)methoxy)benzyl)piperidine-2-carboxylic Acid] | 0.00021 to 0.01
7 | Cc1c(COc2cc(OCc3cncc(C#N)c3)c(CNC(CO)CO)cc2Cl)cccc1-c1cccc(OCCCN2CCC(O)(C(=O)O)CC2)c1Cl [Example 2056, 1-(3-((2-chloro-3′-((2-chloro-5-((5-cyanopyridin-3-yl)methoxy)-4-(((1,3-dihydroxypropan-2-yl)amino)methyl)phenoxy)methyl)-2′-methyl-[1,1′-biphenyl]-3-yl)oxy)propyl)-4-hydroxypiperidine-4-carboxylic Acid] | 0.00021 to 0.01
8 | COC(=O)[C@@H]1CCCCN1CCCOc1cccc(-c2cccc(COc3cc(OCc4cncc(C#N)c4)c(CN4CCCC[C@H]4C(=O)O)cc3Cl)c2C)c1C [Example 2243, (2S)-1-(5-chloro-2-((5-cyanopyridin-3-yl)methoxy)-4-((3′-(3-((S)-2-(methoxycarbonyl)piperidin-1-yl)propoxy)-2,2′-dimethylbiphenyl-3-yl)methoxy)benzyl)piperidine-2-carboxylic Acid] | 0.00021 to 0.01
9 | Cc1c(COc2cc(OCc3cncc(C#N)c3)c(CN[C@](C)(CO)C(=O)O)cc2Cl)cccc1-c1cccc(OCCCN2CCCC(CO)C2)c1Cl (stereo partly drawn) [Example 2043, (2R)-2-((5-chloro-4-((2′-chloro-3′-(3-(3-(hydroxymethyl)piperidin-1-yl)propoxy)-2-methyl-[1,1′-biphenyl]-3-yl)methoxy)-2-((5-cyanopyridin-3-yl)methoxy)benzyl)amino)-3-hydroxy-2-methylpropanoic Acid] | 0.00021 to 0.01
10 | Cc1cc(OCCCCN2CC[C@@H](O)C2)ccc1-c1cccc(COc2cc(OCc3cncc(C#N)c3)c(CN[C@H](CO)C(=O)O)cc2Cl)c1C [Example 1092, (5-chloro-2-((5-cyanopyridin-3-yl)methoxy)-4-((4′-(4-((R)-3-hydroxypyrrolidin-1-yl)butoxy)-2,2′-dimethyl-[1,1′-biphenyl]-3-yl)methoxy)benzyl)-D-serine] | 0.00021 to 0.01
11 | Cc1c(OCCCNC[C@H](O)CO)cccc1-c1cccc(COc2cc(OCc3cncc(C#N)c3)c(CNC(CO)CO)cc2Cl)c1Cl [Example 2299, (S)-5-((4-chloro-5-((2-chloro-3′-(3-((2,3-dihydroxypropyl)amino)propoxy)-2′-methyl-[1,1′-biphenyl]-3-yl)methoxy)-2-(((1,3-dihydroxypropan-2-yl)amino)methyl)phenoxy)methyl)nicotinonitrile] | 0.00021 to 0.01
12 | Cc1c(COc2cc(OCc3cc(Cl)cc(Cl)c3)c(CNC(CO)(CO)CO)cc2Cl)cccc1-c1cccc(OCCCN2CC[C@@H](O)C2)c1C [Example 4502, (R)-2-((5-chloro-2-((3,5-dichlorobenzyl)oxy)-4-((3′-(3-(3-hydroxypyrrolidin-1-yl)propoxy)-2,2′-dimethyl-[1,1′-biphenyl]-3-yl)methoxy)benzyl)amino)-2-(hydroxymethyl)propane-1,3-diol] | 0.00021 to 0.01
13 | Cc1c(COc2cc(OCc3cncc(C#N)c3)c(CO)cc2Cl)cccc1-c1cccc(OCCCN(C)C[C@H](O)CO)c1Cl [Example 2025, (S)-5-((4-chloro-5-((2′-chloro-3′-(3-((2,3-dihydroxypropyl)(methyl)amino)propoxy)-2-methyl-[1,1′-biphenyl]-3-yl)methoxy)-2-(hydroxymethyl)phenoxy)methyl)nicotinonitrile] | 0.00021 to 0.01
14 | N#Cc1cncc(COc2cc(OCc3cccc(-c4cccc(OCCCN5CCCCC5)c4Cl)c3Cl)c(Cl)cc2CO)c1 [Example 2046, 5-((4-chloro-5-((2,2′-dichloro-3′-(3-(piperidin-1-yl)propoxy)-[1,1′-biphenyl]-3-yl)methoxy)-2-(hydroxymethyl)phenoxy)methyl)nicotinonitrile] | 0.00021 to 0.01
15 | Cc1c(COc2cc(OCc3cncc(C#N)c3)c(CNC(C)(CO)CO)cc2Cl)cccc1-c1cccc(OCCCN2CCC(CO)(C(=O)O)C2)c1Cl (stereo not shown) [Example 1118, 1-(3-((2-chloro-3′-((2-chloro-5-((5-cyanopyridin-3-yl)methoxy)-4-(((1,3-dihydroxy-2-methylpropan-2-yl)amino)methyl)phenoxy)methyl)-2′-methyl-[1,1′-biphenyl]-3-yl)oxy)propyl)-3-(hydroxymethyl)pyrrolidine-3-carboxylic Acid] | 0.01 to 0.1
16 | Cc1c(OCCCN2CCCCC2)cccc1-c1cccc(COc2cc(OCc3cncc(C#N)c3)c(CNC(CO)CO)cc2Cl)c1Cl [Example 2301, 5-((4-chloro-5-((2-chloro-2′-methyl-3′-(3-(piperidin-1-yl)propoxy)-[1,1′-biphenyl]-3-yl)methoxy)-2-(((1,3-dihydroxypropan-2-yl)amino)methyl)phenoxy)methyl)nicotinonitrile] | 0.00021 to 0.01
